Test results published in US8207345B2, “Tetrahydroquinolines for use as modulators of the mitotic motor protein Eg5” (Merck Patent GmbH, priority 2005, dated 2012).

Test system: cells
Assay: cell cycle effect (G2/M), appended experiments
Assay type: cell-based

N=C(N)c1ccc(OCCCCCOc2ccc(C(=N)N)cc2)cc1 [pentamidine]
maintain cells in the G2/M cell cycle: maintain cells in the G2/M cell cycle
